In US10702706B2, “Apparatus, system, and method for generating photo-biologic minimum biofilm inhibitory concentration of infrared light” (NOMIR MEDICAL TECHNOLOGIES, INC., priority 2013, dated 2020):
Like-named read-outs stand apart in the source and are kept apart here.

Experiments:
[1] = tested on: MRSA; test: In vitro biofilm formation by biofilm producing MRSA strains challenged with Mupirocin, with or without NIMELS infrared light; assay type: cell-based, methicillin resistant Staphylococcus aureus
Text: The applicant tested the effect in vitro against MRSA with the topical drug Mupirocin.
Accordingly, the PMBIC for MRSA challenged with Mupirocin was established using a straightforward testing protocol.

[2] = tested on: MRSA; conditions: of 38 patients, topical mupirocin; cited from earlier work
[3] = tested on: MRSA; conditions: cited from earlier work
[4] = tested on: S. aureus; conditions: cited from earlier work

## C/C(=C\C(=O)OCCCCCCCCC(=O)O)C[C@@H]1OC[C@H](C[C@@H]2O[C@H]2[C@@H](C)[C@H](C)O)[C@@H](O)[C@H]1O [Mupirocin]
[1]; drug treatment alone, in vitro, biofilm producing MRSA strain (FIG. 9 left panel)
  prevention of biofilm formation: not effective in preventing biofilm formation
[1]; sub-lethal NIMELS infrared light doses (870/930 nm, Table I) applied prior to drug, two different samples of MRSA (FIG. 9 right panel, FIG. 10)
  inhibition of biofilm production: did in fact inhibit biofilm production
[2]
  patients successfully eradicated of their MRSA: 14
[3]; 17 failed samples that were biofilm producing strains
  MIC: ≤ 2 µg/mL
[3]; MRSA samples of the 14 patients with successful eradication
  MIC: ≤ 1 µg/mL
[4]; applied 15 minutes after inoculation (representing planktonic bacteria)
  effect on planktonic bacteria: reduced planktonic bacteria
[4]; applied 48 hours after inoculation (representing biofilm bacteria)
  effect on biofilm bacteria: decreased efficacy on S. aureus biofilms
